The text below walks through data of PMC7996328, “Design, Synthesis, and Biological Evaluation of a Series of 5- and 7-Hydroxycoumarin Derivatives as 5-HT1A Serotonin Receptor Antagonists” (Pharmaceuticals, 2021).

Like-named read-outs stand apart in the source and are kept apart here.

In one series the target is T1, 5-HT1A receptor (Rattus norvegicus, UniProt P19327).
T1 construct: Hippocampal homogenates (15 μg/mL) were added to each tube as the 5-HT1A receptor source; from tissue; host or cells: rat hippocampus (male Sprague-Dawley), membrane homogenate
T1 sequence (P19327 1-422): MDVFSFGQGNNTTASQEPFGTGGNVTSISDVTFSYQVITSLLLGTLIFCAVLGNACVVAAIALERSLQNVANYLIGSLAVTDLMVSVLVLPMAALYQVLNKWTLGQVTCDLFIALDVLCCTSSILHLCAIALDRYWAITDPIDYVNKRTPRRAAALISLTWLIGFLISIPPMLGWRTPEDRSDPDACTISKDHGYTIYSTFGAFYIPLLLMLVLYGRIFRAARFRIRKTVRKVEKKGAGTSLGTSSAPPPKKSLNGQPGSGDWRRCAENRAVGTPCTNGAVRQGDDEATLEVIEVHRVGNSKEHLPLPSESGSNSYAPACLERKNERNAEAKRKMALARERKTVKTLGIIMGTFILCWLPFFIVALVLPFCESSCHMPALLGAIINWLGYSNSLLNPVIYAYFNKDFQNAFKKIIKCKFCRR
The series can be described thus: Antagonist activity for the 5-HT1A receptor, [35S]GTPγS assay in hippocampal homogenates. It is filed as biochemical. The conditions noted are these: 8-OH-DPAT 1.4 × 10^−7 M, mean ± SEM; for EC50: antagonistic activity. Here is the method: Male Sprague–Dawley rats were decapitated, their brains removed, and placed on ice. Hippocampi were dissected and homogenized with a glass homogenizer in 30 vol. ice-cold TED buffer (50 mM Tris-HCl, 1 mM EDTA, 1mM dithiotheritol, pH 7.4). Next, the homogenate was centrifuged at 21,000× g for 30 min at 4 °C. […] The suspension was centrifuged again at 21,000× g for 30 min at 4 °C. The pellet was resuspended in 30 vol. TED buffer (pH 7.4) and the centrifugation step was repeated. The final pellet was suspended in 10 vol 50 mM Tris-HCl (pH 7.4) and stored at −80 °C until use.
Serial dilutions of the compounds tested (10^−10–10^−5 M) were incubated in triplicate with 0.8 nM [^35S]GTPγS in assay buffer (50 mM Tris-HCl, pH = 7.4, 1 mM EGTA, 3 mM MgCl2, 100 mM NaCl, 30 µM GDP) and 8-OH-DPAT (final concentration 1.4 × 10^−7 M) in the final assay volume of 250 µL. Hippocampal homogenates (15 μg/mL) were added to each tube as the 5-HT1A receptor source. […] Non-specific binding was determined with 10 µM of unlabeled GTPγS. […] Next, 96-well Unifilter® Plates (Perkin Elmer, Waltham, MA, USA) were presoaked for 1 h with 50 mM Tris-HCl (pH = 7.4) before harvesting. The reaction was terminated by vacuum filtration onto filter plates with the FilterMate Harvester® (Perkin Elmer, Waltham, MA, USA). The samples were then rapidly washed with 2 mL of 50 mM Tris-HCl (pH = 7.4) buffer. Filter plates were dried for 2 h at 50 °C. After drying, 45 µL of EcoScint-20 scintillant (Perkin Elmer) was added to every well. Radioactivity was counted in a Trilux MicroBeta^2 counter (Perkin Elmer). Data were analyzed with GraphPad Prism 5.0 software (GraphPad Software, San Diego, CA, USA, www.graphpad.com). Curves were fitted with a one-site non-linear regression model. Efficacy (Emax) and half maximal inhibitory concentration (IC50) were calculated from the Cheng–Prusoff equation and expressed as means ± SEM.
(GTPγS is a poorly hydrolysed GTP analogue; its binding reports G protein activation.)

For another series, the target named is T2, 5-HT2A receptor (Rattus norvegicus, UniProt P14842).
T2 construct: from tissue; host or cells: rat frontal cortex (male SD), membrane homogenate
The series can be described thus: 5-HT2A competition binding assay, [3H]ketanserin, frontal cortex homogenates. The conditions noted are these: [3H]ketanserin 1 nM. The protocol:
Male SD rats were decapitated and their brains removed and placed on ice. Frontal cortices were homogenized with a glass homogenizer in 30 vol ice-cold homogenization buffer (50 mM Tris-HCl. 1 mM EDTA. 5 mM MgCl2. pH 7.4). Next, the homogenate was centrifuged at 20,000× g for 15 min at 4 °C. […] The suspension was again centrifuged at 20,000× g for 15 min at 4 °C. The pellet was resuspended in 10 vol. 50 mM Tris-HCl (pH 7.4) and the centrifugation step was repeated. The final pellet was suspended in 10 vol 50 mM Tris-HCl (pH 7.4) and stored at −80 °C.
Non-specific binding was determined in the presence of 10 μM mianserin. After incubation, the reaction mixture was deposited onto UniFilter-96 GF/B plates with the aid of a FilterMate-96 Harvester. Filter plates were presoaked beforehand with 0.4% PEI for 1 h. Next, each filter well was washed with 1.75 mL of 50 mM Tris-HCl (pH 7.4) and left to dry on a heating block set to 50 °C for 2 h. Then 45 µL of Microscint-20 scintillation fluid was added to each filter well and left to equilibrate overnight. Filter-bound radioactivity was counted in a MicroBeta^2 Microplate Counter. Binding curves were fitted with one site non-linear regression. Affinity was presented as the inhibitory constant (pKi ± SEM and Ki ± SEM) from two or three separate experiments.

Where [1] appears, read: read-out: Ki (nM ± SEM) (converted).
Setting [2] is: read-out: pKi (M ± SEM) (converted).

T2 sequence (P14842 whole entry): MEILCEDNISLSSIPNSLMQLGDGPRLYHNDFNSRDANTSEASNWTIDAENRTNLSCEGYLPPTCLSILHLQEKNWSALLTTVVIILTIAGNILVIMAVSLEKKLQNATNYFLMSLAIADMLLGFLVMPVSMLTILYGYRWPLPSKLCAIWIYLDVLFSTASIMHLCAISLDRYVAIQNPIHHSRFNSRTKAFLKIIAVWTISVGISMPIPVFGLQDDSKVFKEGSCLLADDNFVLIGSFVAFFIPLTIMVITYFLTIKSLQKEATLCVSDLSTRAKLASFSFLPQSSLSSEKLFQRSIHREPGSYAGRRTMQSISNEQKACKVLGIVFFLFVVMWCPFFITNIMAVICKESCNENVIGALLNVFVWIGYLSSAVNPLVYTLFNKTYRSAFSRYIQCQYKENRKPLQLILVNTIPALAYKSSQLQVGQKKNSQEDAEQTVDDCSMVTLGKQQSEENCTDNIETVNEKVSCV

For orientation: IC50 means the concentration that gives 50% inhibition. A high value points to weaker potency. In general, EC50 refers to the concentration at which the effect is half-maximal. The melting point is the temperature, or range, at which the solid turns liquid. The molecule `CC(=O)c1c(C)cc2oc(=O)cc(C)c2c1OCCN1CCN(c2cccc(F)c2)CC1` [Compound 4e, 6-acetyl-5-(2-(4-(3-fluorophenyl)piperazin-1-yl)ethoxy)-4,7-dimethyl-2H-chromen-2-one] showed a melting point of 135 to 136 °C. Moreover, at 5-HT1A receptor, the IC50 was 0.501 µM and it took 527 ± 191 nM to reach a half-maximal effect (EC50). Besides, the Ki at 5-HT2A receptor (setting [1]) is 3860 ± 810 nM.
Taken in the same sequence, the figures for `CC(=O)c1c(C)cc2oc(=O)cc(C)c2c1OCCN1CCN(c2ccccc2Br)CC1` [Compound 4f, 6-acetyl-5-(2-(4-(2-bromophenyl)piperazin-1-yl)ethoxy)-4,7-dimethyl-2H-chromen-2-one] were 83 to 85 °C, 8.32 µM, 8320 ± 1500 nM and 10600 nM.
The molecule `CC(=O)c1c(C)cc2oc(=O)cc(C)c2c1OCCN1CCN(c2cccc(Br)c2)CC1` [Compound 4g] had a melting point of 127 to 128 °C. Moreover, on 5-HT1A receptor, the IC50 is 12.6 µM and the response was half-maximal at 11100 nM (EC50). Also, the Ki at 5-HT2A receptor (setting [1]) was 3990 ± 745 nM.
In the same order, the values of `CC(=O)c1c(C)cc2oc(=O)cc(C)c2c1OCCN1CCN(c2cccc(Cl)c2Cl)CC1` [Compound 4i, 6-acetyl-5-(2-(4-(2,3-dichlorophenyl)piperazin-1-yl)ethoxy)-4,7-dimethyl-2H-chromen-2-one] are 162 to 163 °C, 3.16 µM, 3100 ± 148 nM and 1640 ± 344 nM.
`CC(=O)c1c(C)cc2oc(=O)cc(C)c2c1OCCN1CCN(c2ccccc2C#N)CC1` [Compound 4j, 6-acetyl-5-(2-(4-(2-cyanophenyl)piperazin-1-yl)ethoxy)-4,7-dimethyl-2H-chromen-2-one]: the melting point was 153 to 155 °C. At 5-HT1A receptor, this molecule had an IC50 of 0.501 µM and an EC50 of 538 ± 105 nM. The Ki at 5-HT2A receptor (setting [1]) is 2430 ± 374 nM.
In the same order, the values of `COc1ccccc1N1CCN(CCCCCOc2ccc3c(C)cc(=O)oc3c2C(C)=O)CC1` [Compound 5a, 8-acetyl-7-(5-[4-(2-methoxyphenyl)piperazin-1-yl]penthoxy)-4-methylchromen-2-one] are 126 to 128 °C, 0.0316 µM, 30.5 ± 2.56 nM and 343 ± 86 nM.
Turning to `CC(=O)c1c(OCCCCCN2CCN(c3ccccc3F)CC2)ccc2c(C)cc(=O)oc12` [Compound 5b, 8-acetyl-7-(5-[4-(2-fluorophenyl)piperazin-1-yl]penthoxy)-4-methylchromen-2-one], the melting point is 95 to 97 °C. On 5-HT1A receptor, this molecule had an IC50 of 0.0794 µM and an EC50 of 82 ± 13.4 nM. In addition, the Ki at 5-HT2A receptor (setting [1]) was 122 ± 43 nM.
In the same order, the values of `CC(=O)c1c(OCCCCCN2CCN(c3cc(C)ccc3C)CC2)ccc2c(C)cc(=O)oc12` [Compound 5d, 8-acetyl-7-(5-[4-(2,5-dimethylphenyl)piperazin-1-yl]penthoxy)-4-methylchromen-2-one] are 92 to 94 °C, 12.6 µM, 12900 nM and 1500 ± 279 nM.
Taken in the same sequence, the figures for `CC(=O)c1c(OCCCCCN2CCN(c3cccc(F)c3)CC2)ccc2c(C)cc(=O)oc12` [Compound 5e, 8-acetyl-7-(5-[4-(3-fluorophenyl)piperazin-1-yl]penthoxy)-4-methylchromen-2-one] were 117 to 119 °C, 31.6 µM, 33900 nM and 2110 ± 420 nM.
For the molecule `CC(=O)c1c(OCCCCCN2CCN(c3ccccc3Br)CC2)ccc2c(C)cc(=O)oc12` [Compound 5f, 8-acetyl-7-(5-[4-(2-bromophenyl)piperazin-1-yl]penthoxy)-4-methylchromen-2-one], the melting point was in the range of 102 to 103 °C. On 5-HT1A receptor, the IC50 is 31.6 µM and a half-maximal effect (EC50) was put at 27400 nM. Moreover, the Ki at 5-HT2A receptor (setting [1]) was 108 ± 24 nM. The Ki on 5-HT2A receptor (setting [2]) is 110 nM.
Molecule `CC(=O)c1c(OCCCCCN2CCN(c3cccc(Br)c3)CC2)ccc2c(C)cc(=O)oc12` [Compound 5g, 8-acetyl-7-(5-[4-(3-bromohenyl)piperazin-1-yl]penthoxy)-4-methylchromen-2-one] yielded a melting point of 119 to 121 °C. On 5-HT1A receptor, the 50% inhibitory concentration (IC50) was 25.1 µM and the response was half-maximal at 21500 nM (EC50). For the same molecule, the Ki on 5-HT2A receptor (setting [1]) was 81 ± 19 nM.
Taken in the same sequence, the figures for `CC(=O)c1c(OCCCCCN2CCN(c3cc(C)cc(C)c3)CC2)ccc2c(C)cc(=O)oc12` [Compound 5h, 8-acetyl-7-(5-[4-(3,5-dimethylphenyl)piperazin-1-yl]penthoxy)-4-methylchromen-2-one] were 113 to 115 °C, 31.6 µM, 32900 nM and 291 ± 57 nM.
With `CC(=O)c1c(OCCCCCN2CCN(c3cccc(Cl)c3Cl)CC2)ccc2c(C)cc(=O)oc12` [Compound 5i, 8-acetyl-7-(5-[4-(2,3-dichlorophenyl)piperazin-1-yl]penthoxy)-4-methylchromen-2-one], the melting point was 137 to 139 °C. At 5-HT1A receptor, this molecule had an IC50 of 63.1 µM and an EC50 of 55900 nM. Further, the Ki on 5-HT2A receptor (setting [1]) was 51 ± 8.3 nM. The Ki at 5-HT2A receptor (setting [2]) was 63.1 nM.
Regarding `CC(=O)c1c(OCCCCCN2CCN(c3ccccc3C#N)CC2)ccc2c(C)cc(=O)oc12` [Compound 5j, 8-acetyl-7-(5-[4-(2-cyanophenyl)piperazin-1-yl]penthoxy)-4-methylchromen-2-one], the melting point was 59 to 61 °C. Further, on 5-HT1A receptor, the IC50 was 15.8 µM and it took 13900 nM to reach a half-maximal effect (EC50). Further, the Ki at 5-HT2A receptor (setting [1]) was 2550 ± 765 nM.
The molecule `COc1ccccc1N1CCN(CCOc2ccc3c(C)cc(=O)oc3c2C(C)=O)CC1` [Compound 6a, 8-acetyl-7-(2-[4-(2-methoxyphenyl)piperazin-1-yl]ethoxy)-4-methylchromen-2-one] came in with a melting point of 157 to 159 °C. Besides, on 5-HT1A receptor, the half-inhibitory concentration (IC50) was 3.16 µM and the EC50 was 2740 ± 626 nM. Also, the Ki at 5-HT2A receptor (setting [1]) is 752 ± 171 nM.
Taken in the same sequence, the figures for `CC(=O)c1c(OCCN2CCN(c3ccccc3F)CC2)ccc2c(C)cc(=O)oc12` [Compound 6b, 8-acetyl-7-(2-[4-(2-fluorophenyl)piperazin-1-yl]ethoxy)-4-methylchromen-2-one] were 137 to 139 °C, 50.1 µM, 45300 nM and 1510 ± 344 nM.
In the case of `COc1cccc(N2CCN(CCOc3ccc4c(C)cc(=O)oc4c3C(C)=O)CC2)c1` [Compound 6c, 8-acetyl-7-(2-[4-(3-methoxyphenyl)piperazin-1-yl]ethoxy)-4-methylchromen-2-one], the melting point is 122 to 124 °C. On 5-HT1A receptor, this molecule showed an IC50 of 50.1 µM and an EC50 of 47200 nM. Besides, the Ki on 5-HT2A receptor (setting [1]) is 920 ± 160 nM. In addition, on 5-HT2A receptor (setting [2]), the Ki is 933 nM.
